Measured values taken from patent publication US9540380B2, “Imidazotriazinone compounds” (Ironwood Pharmaceuticals, Inc., priority 2010, dated 2017).

What was measured:
[1] = target: T1, PDE1A (Homo sapiens, UniProt P54750); test: Phosphodiesterase Enzyme Screening Assay, PDE1A (selectivity versus PDE9A2); assay type: biochemical; details: ratio of IC50 values; value greater than 1 indicates greater selectivity for PDE9A2
T1 construct: purchased Reaction Biology Corporation, Malvern, Pa
Text: (§1) Compounds of the invention were screened against PDE1A, PDE1B, PDE2A, PDE3A, PDE3B, PDE4A1A, PDE4B1, PDE4D3, PDE5A1, PDE6C, PDE7A, PDE8A1, PDE9A2, PDE10A2 AND PDE11A isoforms of the phosphodiesterase enzyme to determine activity and overall selectivity through comparative analysis. The assay generally consists of testing the compounds of the invention at 10 concentrations. Where 8-methoxy-IBMX and Zaprinast were used as reference inhibitors.
(§2) The phosphodiesterase enzyme isoforms were obtained from a commercial retailer (Reaction Biology Corporation, Malvern, Pa.) for use in the instant screening assay.
(§3) The analysis was completed using the Caliper LabChip 3000 and a 12-sipper LabChip. LabChip assays are separations-based, meaning that the product and substrate are electrophoretically separated, thereby minimizing interferences and yielding the highest data quality available on any screening platform. Z′ factors for both the EZ Reader and LC3000 enzymatic assays are routinely in the 0.8 to 0.9 range. High Z′ values, few false positives, few false negatives and analytical quality reproducibility are the reasons cited for the increasing reliance on the LabChip assays.
(§4) The off-chip incubation mobility-shift phosphodiesterase assay uses a microfluidic chip to measure the conversion of a fluorescent cyclic AMP substrate to a 5′-AMP product, or a cyclic GMP substrate to a 5′-GMP product. The reaction mixture, from a microtiter plate well, is introduced through a capillary sipper onto the chip, where the fluorescent substrate and product are separated by electrophoresis and detected via laser-induced fluorescence. […] The precision of microfluidics allows researchers to detect subtle interactions between drug candidates and therapeutic targets. The technology is able to detect both strong and weak inhibitors with high accuracy, and routinely identifies drug candidates that conventional techniques miss.
(§5) Reactions were carried out in 100 mM HEPES (pH 7.5), 5 mM MgCl2, 1 mM DTT, 0.003% Brij, 4.0 μM cGMP substrate. The reaction was started by addition of cGMP or cAMP and incubated for 1 hour at R.T. The reaction was terminated by the addition of stop buffer containing 100 mM HEPES (pH 7.5), 15 mM EDTA, 0.015% Brij-35, 5% DMSO. Cyclic AMP/GMP substrate and 5′-AMP/5′-GMP product were separated by charge using electrophoretic mobility shift. Product formed was compared to control wells to determine inhibition or enhancement of enzyme activity.
(§6) One or more reference compounds, depending on phosphodiesterase isoform, selected from 8-methoxy-IBMX, Zaprinast, Trequinsin, Pentoxifyline, Rolipram, and Vinpocetine, Dipyridamole, and BRL-50481 were run alongside client samples to ensure data quality. The resulting IC50 is compared against the historical average and must be within 3-fold of this average.
(§7) Data points were averages of quadruplicate wells and error bars represented the SEM for each point. IC50s were determined using GraphPad Prism Version 5.01 and the log (inhibitor) vs. response variable slope curve fit.

[2] = target: T2, PDE1B (Homo sapiens, UniProt Q01064); test: Phosphodiesterase Enzyme Screening Assay, PDE1B (selectivity versus PDE9A2); assay type: biochemical; details: ratio of IC50 values; value greater than 1 indicates greater selectivity for PDE9A2
T2 construct: purchased Reaction Biology Corporation, Malvern, Pa
T2 sequence (Q01064 whole entry): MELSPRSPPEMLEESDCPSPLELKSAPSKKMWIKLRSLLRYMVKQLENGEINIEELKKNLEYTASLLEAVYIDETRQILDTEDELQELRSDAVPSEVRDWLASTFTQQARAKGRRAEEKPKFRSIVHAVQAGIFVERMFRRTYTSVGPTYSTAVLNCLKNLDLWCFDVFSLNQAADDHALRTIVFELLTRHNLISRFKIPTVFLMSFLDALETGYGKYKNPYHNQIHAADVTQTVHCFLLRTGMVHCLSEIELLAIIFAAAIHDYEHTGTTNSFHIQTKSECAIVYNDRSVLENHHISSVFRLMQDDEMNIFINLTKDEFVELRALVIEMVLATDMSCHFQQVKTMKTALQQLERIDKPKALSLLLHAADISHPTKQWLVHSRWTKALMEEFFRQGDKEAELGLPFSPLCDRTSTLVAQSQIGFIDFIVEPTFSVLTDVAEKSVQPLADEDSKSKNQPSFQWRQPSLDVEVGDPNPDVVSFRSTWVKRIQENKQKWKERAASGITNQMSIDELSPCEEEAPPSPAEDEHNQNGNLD
Text: as §1, §2, §3, §4, §5, §6, §7

[3] = target: T3, PDE9A2 (Homo sapiens, UniProt O76083); test: Phosphodiesterase Enzyme Screening Assay, PDE9A2 (Caliper LabChip mobility-shift); assay type: biochemical; details: 10 concentrations, 4.0 μM cGMP substrate, 1 hour at R.T.; read-out: Band (PDE9A2 IC50)
T3 construct: purchased Reaction Biology Corporation, Malvern, Pa
T3 sequence (O76083 1-533 isoform O76083-2): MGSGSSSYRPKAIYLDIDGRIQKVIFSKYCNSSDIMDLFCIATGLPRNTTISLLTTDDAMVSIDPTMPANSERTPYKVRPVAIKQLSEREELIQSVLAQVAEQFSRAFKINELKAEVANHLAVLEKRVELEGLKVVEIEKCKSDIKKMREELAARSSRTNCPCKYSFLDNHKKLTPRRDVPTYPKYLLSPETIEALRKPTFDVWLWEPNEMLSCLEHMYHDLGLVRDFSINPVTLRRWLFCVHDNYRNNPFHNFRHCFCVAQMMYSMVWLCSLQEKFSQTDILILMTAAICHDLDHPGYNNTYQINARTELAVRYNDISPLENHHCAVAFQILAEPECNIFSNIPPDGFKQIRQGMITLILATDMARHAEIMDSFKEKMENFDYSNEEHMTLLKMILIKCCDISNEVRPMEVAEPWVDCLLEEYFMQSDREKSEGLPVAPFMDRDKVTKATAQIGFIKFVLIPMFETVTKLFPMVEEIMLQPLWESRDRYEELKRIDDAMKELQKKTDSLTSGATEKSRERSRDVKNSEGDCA
Text: as §1, §2, §3, §4, §5, §6, §7

[4] = target: PDE9 (Homo sapiens, UniProt O76083); details: PDE9 affinity for cGMP; cited from earlier work
Sequence of PDE9 (O76083 whole entry): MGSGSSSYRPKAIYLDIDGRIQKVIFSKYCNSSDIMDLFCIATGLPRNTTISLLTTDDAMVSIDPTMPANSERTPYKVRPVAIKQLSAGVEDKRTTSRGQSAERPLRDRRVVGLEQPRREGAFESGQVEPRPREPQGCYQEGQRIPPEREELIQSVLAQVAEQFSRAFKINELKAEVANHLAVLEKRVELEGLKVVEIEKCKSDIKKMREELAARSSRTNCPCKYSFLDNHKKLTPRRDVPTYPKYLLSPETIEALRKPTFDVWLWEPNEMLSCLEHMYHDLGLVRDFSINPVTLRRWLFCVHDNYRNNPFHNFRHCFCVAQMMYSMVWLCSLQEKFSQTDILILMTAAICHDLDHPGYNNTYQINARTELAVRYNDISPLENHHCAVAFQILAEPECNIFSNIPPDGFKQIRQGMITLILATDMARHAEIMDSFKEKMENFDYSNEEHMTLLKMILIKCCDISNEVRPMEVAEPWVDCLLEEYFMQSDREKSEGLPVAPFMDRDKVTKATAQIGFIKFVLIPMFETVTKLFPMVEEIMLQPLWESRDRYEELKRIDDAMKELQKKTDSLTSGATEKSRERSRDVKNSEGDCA

T1 sequence (P54750 whole entry): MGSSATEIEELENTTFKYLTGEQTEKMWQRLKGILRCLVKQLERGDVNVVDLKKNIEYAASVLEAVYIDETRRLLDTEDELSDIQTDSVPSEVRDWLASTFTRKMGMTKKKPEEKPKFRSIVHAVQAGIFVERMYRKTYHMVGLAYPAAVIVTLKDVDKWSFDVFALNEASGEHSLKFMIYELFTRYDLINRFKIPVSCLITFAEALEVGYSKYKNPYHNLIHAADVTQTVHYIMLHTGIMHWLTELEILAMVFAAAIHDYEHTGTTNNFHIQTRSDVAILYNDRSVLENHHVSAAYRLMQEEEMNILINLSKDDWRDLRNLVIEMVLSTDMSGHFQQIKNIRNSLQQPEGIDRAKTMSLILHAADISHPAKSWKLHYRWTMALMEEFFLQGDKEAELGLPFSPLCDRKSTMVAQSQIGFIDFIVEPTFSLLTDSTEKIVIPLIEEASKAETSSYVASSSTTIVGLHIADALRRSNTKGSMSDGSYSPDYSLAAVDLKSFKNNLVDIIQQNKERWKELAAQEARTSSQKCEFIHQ

SMILES	PDE1A selectivity (versus PDE9A2) [1]	PDE1B selectivity (versus PDE9A2) [2]	IC50 [3]	Km [4]
C[C@@H]1CN(Cc2cccc(C#N)c2)C[C@H]1c1nn2c(C3CCOCC3)ncc2c(=O)[nH]1 (single isomer, unassigned) [(+)-3-(((3,4-trans)-3-methyl-4-(4-oxo-7-(tetrahydro-2H-pyran-4-yl)-3,4-dihydroimidazo[5,1-f][1,2,4]triazin-2-yl)pyrrolidin-1-yl)methyl)benzonitrile]	942	343	< 1000 nM	–
C[C@@H]1CN(Cc2ccc(C#N)cc2)C[C@H]1c1nn2c(C3CCOCC3)ncc2c(=O)[nH]1 (single isomer, unassigned) [(−)-4-(((3,4-trans)-3-methyl-4-(4-oxo-7-(tetrahydro-2H-pyran-4-yl)-3,4-dihydroimidazo[5,1-f][1,2,4]triazin-2-yl)pyrrolidin-1-yl)methyl)benzonitrile]	640	1445	< 1000 nM	–
C[C@@H]1CN(Cc2ccccc2C#N)C[C@H]1c1nn2c(C3CCOCC3)ncc2c(=O)[nH]1 (single isomer, unassigned) [(+)-2-(((3,4-trans)-3-methyl-4-(4-oxo-7-(tetrahydro-2H-pyran-4-yl)-3,4-dihydroimidazo[5,1-f][1,2,4]triazin-2-yl)pyrrolidin-1-yl)methyl)benzonitrile]	241	220	< 1000 nM	–
C[C@@H]1CN(Cc2cn3ncccc3n2)C[C@H]1c1nn2c(C3CCOCC3)ncc2c(=O)[nH]1 (single isomer, unassigned) [(+)-2-((3,4-trans)-1-(imidazo[1,2-b]pyridazin-2-ylmethyl)-4-] [(+)-2-((3,4-trans)-1-(imidazo[1,2-b]pyridazin-2-ylmethyl)-4-methylpyrrolidin-3-yl)-7-(tetrahydro-2H-pyran-4-yl)imidazo[5,1-f][1,2,4]triazin-4(3H)-one]	1005	1413	–	–
Nc1nc2c(ncn2[C@@H]2O[C@@H]3COP(=O)(O)O[C@H]3[C@H]2O)c(=O)[nH]1 [cGMP, cyclic guanosine monophosphate]	–	–	–	~0.17 µM
